Source: patent US20250032573A1, “IMMUNITY-ENHANCING PEPTIDE ANALOGS AND USES THEREOF” (RESEARCH & BUSINESS FOUNDATION SUNGKYUNKWAN UNIVERSITY, priority 2023, published 2025)
Numbered stars: 1 amine (or outer) side, 2 acyl side, 3 side chain; on linkers, the order of the positions; unused ones are H or OH. Square brackets hold non-standard residues; d marks the D form. Peptide text beside a SMILES is read from it. Gly(N-4-hydroxybenzyl) = O=C(O)CNCc1ccc(O)cc1; X1 = CSCCN(CC(=O)[*:2])[*:1]; Nlys = NCCCCNCC(=O)O

Tests used:
[1] = Degradation half-life in human liver S9 fraction (HPLC); assay type: in vitro ADME
Experimental: To measure the ex vivo stability of the eight analogs comprising a β^3-amino acid residue, the degradation half-life of each analog was measured in a human liver S9 fraction. The degradation half-life was measured by culturing the peptide and serum together at 37° C. and measuring the degree to which the compound was reduced using HPLC at each hour.
The ex vivo stability of the analogs to which a peptoid residue was introduced was measured using the same method as the stability measurement method for the analogs comprising a β-amino acid residue. […] On the other hand, it was confirmed that K peptoid, KY peptoid, and KM peptoid had very high stability so that more than half of them was not degraded even after 24 hours (FIG. 17).

neutrophils [2] = assay: Superoxide anion (ROS) production in neutrophils; assay type: cell-based
Experimental: The effect of superoxide anion production in neutrophils by the peptoid-comprising analogs in which a peptoid residue was substituted for K, Y, and M in the structure of WKYMVm was measured.

neutrophils [3] = assay: Degranulation activity of neutrophils (beta-hexosaminidase activity); assay type: cell-based
Experimental: The degranulation activity of neutrophils by the analogs in which each amino acid in the structure of WKYMVm was substituted with a β-amino acid was compared and analyzed by measuring beta-hexosaminidase activity.
The degranulation activity of neutrophils by the peptoid-containing analogs in which a peptoid residue was substituted for K, Y, and M in the structure of WKYMVm was measured.

FIG. 17 = assay: FIG. 17
Description: Table printed on a drawing sheet, FIG. 17

neutrophils [4] = tested on: neutrophils
FPR2 = FPR2 (Homo sapiens, UniProt P25090); assay: cell-based; conditions: for increase in intracellular calcium ions through activation of FPR2 (in words): FPR2-expressing RBL-2H3 cell line
Chain of FPR2 (P25090 whole entry): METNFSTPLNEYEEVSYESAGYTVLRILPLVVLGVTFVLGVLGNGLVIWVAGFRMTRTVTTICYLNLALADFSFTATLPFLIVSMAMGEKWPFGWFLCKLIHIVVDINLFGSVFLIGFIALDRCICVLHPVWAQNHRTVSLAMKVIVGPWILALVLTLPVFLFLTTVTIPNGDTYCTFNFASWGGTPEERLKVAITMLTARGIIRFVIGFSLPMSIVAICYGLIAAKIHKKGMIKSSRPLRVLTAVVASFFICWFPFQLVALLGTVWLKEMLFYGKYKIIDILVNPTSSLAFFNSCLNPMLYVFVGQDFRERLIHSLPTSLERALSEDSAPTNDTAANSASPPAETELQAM
Experimental: To investigate whether activation of FPR2 is induced by the WKYMVm peptide analogs, changes in calcium ions were measured in RBL-2H3 cell line that artificially expressed FPR2.

neutrophils [5] = assay: Neutrophil chemotaxis assay using a Boyden chamber; assay type: cell-based; conditions: for chemotactic migration of neutrophils: from 1 nM or 10 nM to 1 μM
Experimental: To investigate the effect of the WKYMVm peptide analogs on the regulation of immune cell mobility, which a representative function of FPR, a chemotaxis assay was performed using a Boyden chamber.
To measure the in vitro innate immune activity of four peptides comprising one non-natural β^3-amino acid residue, the effect of enhancing neutrophil mobility was measured.

FPR1 = FPR1 (Homo sapiens, UniProt P21462); assay: cell-based; conditions: for increase in intracellular calcium ions through activation of FPR1 (in words): FPR1-expressing RBL-2H3 cell line
Chain of FPR1 (P21462 whole entry): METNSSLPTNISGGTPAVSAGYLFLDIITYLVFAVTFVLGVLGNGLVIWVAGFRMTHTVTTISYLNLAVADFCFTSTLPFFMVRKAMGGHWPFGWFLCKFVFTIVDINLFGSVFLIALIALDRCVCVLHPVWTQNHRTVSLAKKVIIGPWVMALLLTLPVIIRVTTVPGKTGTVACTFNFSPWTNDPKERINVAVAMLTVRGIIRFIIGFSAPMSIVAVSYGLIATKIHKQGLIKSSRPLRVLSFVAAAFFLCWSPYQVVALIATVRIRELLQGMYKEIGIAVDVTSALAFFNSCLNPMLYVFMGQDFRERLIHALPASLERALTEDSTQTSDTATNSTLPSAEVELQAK
Experimental: To investigate whether activation of FPR1, which is important in regulating the activity of innate immune cells, is induced by the WKYMVm peptide analogs, changes in calcium ions were measured in RBL-2H3 cell line, a type of mast cell that artificially expressed FPR1. […] On the other hand, an increase in intracellular calcium ions by WKYMVβm (V is a β-amino acid) through activation of FPR1 was not observed.

【FIG 16】 = assay: 【FIG 16】
Description: Table printed on a drawing sheet, 【FIG 16】

[6] = human liver S9 fraction, 37° C., 24-hour measurement period, read-out: degradation half-life
[7] = human liver S9 fraction, 37° C.

In the case of `CSCC[C@H](NC(=O)[C@H](Cc1ccc(O)cc1)NC(=O)CN(CCCCN)C(=O)[C@@H](N)Cc1c[nH]c2ccccc12)C(=O)N[C@H](C(=O)N[C@H](CCSC)C(N)=O)C(C)C` [K peptoid], the Half-Life [1, 6] is reported as > 24 h, the “superoxide anion production in neutrophils” value (“superoxide anion production” below) (neutrophils [2]) is reported as “effectively promote superoxide anion production” and the “degranulation activity of neutrophils” value (neutrophils [3]) is reported as “promoted the degranulation activity of neutrophils to the extent similar to the WKYMVm peptide”.
In the case of `CSCC[C@@H](NC(=O)[C@@H](NC(=O)CN(CCSC)C(=O)[C@H](Cc1ccc(O)cc1)NC(=O)CN(CCCCN)C(=O)[C@@H](N)Cc1c[nH]c2ccccc12)C(C)C)C(N)=O` [KM peptoid] (H-W[Nlys]Y[X1]V[dM]-NH2), the Half-Life ([1]; human, s9) is reported as > 24 h.
With `CSCC[C@H](NC(=O)CN(Cc1ccc(O)cc1)C(=O)CN(CCCCN)C(=O)[C@@H](N)Cc1c[nH]c2ccccc12)C(=O)N[C@H](C(=O)N[C@H](CCSC)C(N)=O)C(C)C` [KY peptoid] (H-W[Nlys][Gly(N-4-hydroxybenzyl)]MV[dM]-NH2) the Half-Life ([1]; human, s9) was > 24 h.
In the case of `CSCC[C@@H](NC(=O)[C@@H](NC(=O)CN(CCSC)C(=O)[C@H](Cc1ccc(O)cc1)NC(=O)[C@H](CCCCN)NC(=O)[C@@H](N)Cc1c[nH]c2ccccc12)C(C)C)C(N)=O` [M peptoid] (H-WKY[X1]V[dM]-NH2), the “Half-Life” value (FIG. 17) is reported as 2.5 h, the “superoxide anion production” value (neutrophils [2]) is reported as “effectively promote superoxide anion production” and the “degranulation activity of neutrophils” value (neutrophils [3]) is reported as “promoted the degranulation activity of neutrophils to the extent similar to the WKYMVm peptide”.
With `CSCC[C@@H](CC(=O)N[C@H](C(=O)N[C@H](CCSC)C(N)=O)C(C)C)NC(=O)[C@H](Cc1ccc(O)cc1)NC(=O)[C@H](CCCCN)NC(=O)[C@@H](N)Cc1c[nH]c2ccccc12` [WKYMβVm] the “degradation half-life / ex vivo stability compared to the WKYMVm peptide (in words)” value [1, 7] was “half-life similar to that of the WKYMVm peptide”, the “calcium ion-increasing effect in neutrophils” value (“calcium ion-increasing effect” for short) (neutrophils [4]) was “highly induced” and the EC50 (FPR2) was 14 nM. For the same compound, the “increase in intracellular calcium ions through activation of FPR2 (in words)” value (FPR2) was “increase in calcium ions in a concentration-dependent manner was observed”, the “chemotactic migration of neutrophils” value (neutrophils [5]) was “effectively induce chemotactic migration of neutrophils in a concentration-dependent manner” and the “superoxide anion production” value (neutrophils [2]) was “induce superoxide anion production very effectively to a similar extent as the WKYMVm peptide”. The “degranulation activity of neutrophils” value (neutrophils [3]) was “induced the degranulation activity of neutrophils very effectively to a similar extent as the WKYMVm peptide”, the EC50 (FPR1) was 431 nM and the “increase in intracellular calcium ions through activation of FPR1 (in words)” value (FPR1) was “increase in calcium ions in a concentration-dependent manner was also observed”.
For `CSCC[C@H](NC(=O)C[C@H](Cc1ccc(O)cc1)NC(=O)[C@H](CCCCN)NC(=O)[C@@H](N)Cc1c[nH]c2ccccc12)C(=O)N[C@H](C(=O)N[C@H](CCSC)C(N)=O)C(C)C` [WKYβMVm], the “degradation half-life / ex vivo stability compared to the WKYMVm peptide (in words)” value [1, 7] was “half-life similar to that of the WKYMVm peptide”, the “calcium ion-increasing effect” value (neutrophils [4]) was “highly induced” and the EC50 (FPR2) was 13.9 nM. The “increase in intracellular calcium ions through activation of FPR2 (in words)” value (FPR2) was “increase in calcium ions in a concentration-dependent manner was observed”, the “chemotactic migration of neutrophils” value (neutrophils [5]) was “effectively induce chemotactic migration of neutrophils in a concentration-dependent manner” and the “superoxide anion production” value (neutrophils [2]) was “induce superoxide anion production very effectively to a similar extent as the WKYMVm peptide”. The “degranulation activity of neutrophils” value (neutrophils [3]) was “induced the degranulation activity of neutrophils very effectively to a similar extent as the WKYMVm peptide”, the EC50 (FPR1) was 754 nM and the “increase in intracellular calcium ions through activation of FPR1 (in words)” value (FPR1) was “increase in calcium ions in a concentration-dependent manner was also observed”.
In the case of `CSCC[C@@H](CC(=O)N[C@H](C(=O)N[C@H](CCSC)C(N)=O)C(C)C)NC(=O)C[C@H](Cc1ccc(O)cc1)NC(=O)[C@H](CCCCN)NC(=O)[C@@H](N)Cc1c[nH]c2ccccc12` [WKYβMβVm], the “degradation half-life / ex vivo stability compared to the WKYMVm peptide (in words)” value [1, 7] is reported as “improved ex vivo stability”, the “calcium ion-increasing effect” value (neutrophils [4]) is reported as “highly induced” and the “effect of enhancing neutrophil mobility, compared with the WKYMVm peptide” value (“effect … compared with the WKYMVm peptide” below) (neutrophils [5]) is reported as “maintained similar activity to the WKYMVm peptide”. For the same compound, the “superoxide anion production” value (neutrophils [2]) was “effectively promoted superoxide anion production” and the “degranulation activity of neutrophils” value (neutrophils [3]) was “effectively promoted the degranulation activity of neutrophils”.
For `CSCC[C@H](NC(=O)[C@H](Cc1ccc(O)cc1)NC(=O)C[C@H](CCCCN)NC(=O)[C@@H](N)Cc1c[nH]c2ccccc12)C(=O)N[C@H](C(=O)N[C@H](CCSC)C(N)=O)C(C)C` [WKβYMVm], the “half-life increase compared to the WKYMVm peptide” value [1, 7] was “about 1.9 times”, the “calcium ion-increasing effect” value (neutrophils [4]) was “highly induced” and the “increase in intracellular calcium ions through activation of FPR2 (in words)” value (FPR2) was “increase in calcium ions in a concentration-dependent manner was observed”. The “chemotactic migration of neutrophils” value (neutrophils [5]) was “effectively induce chemotactic migration of neutrophils in a concentration-dependent manner”, the “superoxide anion production” value (neutrophils [2]) was “induce superoxide anion production very effectively to a similar extent as the WKYMVm peptide” and the “degranulation activity of neutrophils” value (neutrophils [3]) was “induced the degranulation activity of neutrophils very effectively to a similar extent as the WKYMVm peptide”. The EC50 (FPR1) was 261 nM and the “increase in intracellular calcium ions through activation of FPR1 (in words)” value (FPR1) was “increase in intracellular calcium ions was induced”.
With `CSCC[C@@H](CC(=O)N[C@H](C(=O)N[C@H](CCSC)C(N)=O)C(C)C)NC(=O)[C@H](Cc1ccc(O)cc1)NC(=O)C[C@H](CCCCN)NC(=O)[C@@H](N)Cc1c[nH]c2ccccc12` [WKβYMβVm] the “degradation half-life / ex vivo stability compared to the WKYMVm peptide (in words)” value [1, 7] was “improved ex vivo stability”, the “half-life increase compared to the WKYMVm peptide” value [1, 7] was “about 3.3 times” and the “calcium ion-increasing effect” value (neutrophils [4]) was “highly induced”. The “effect … compared with the WKYMVm peptide” value (neutrophils [5]) was “maintained similar activity to the WKYMVm peptide”, the “superoxide anion production” value (neutrophils [2]) was “effectively promoted superoxide anion production” and the “degranulation activity of neutrophils” value (neutrophils [3]) was “effectively promoted the degranulation activity of neutrophils”.
In the case of `CSCC[C@H](NC(=O)C[C@H](Cc1ccc(O)cc1)NC(=O)C[C@H](CCCCN)NC(=O)[C@@H](N)Cc1c[nH]c2ccccc12)C(=O)N[C@H](C(=O)N[C@H](CCSC)C(N)=O)C(C)C` [WKβYβMVm], the “calcium ion-increasing effect” value (neutrophils [4]) is reported as “highly induced”, the EC50 (FPR2) is reported as 77.3 nM and the “increase in intracellular calcium ions through activation of FPR2 (in words)” value (FPR2) is reported as “activated”. The “effect … compared with the WKYMVm peptide” value (neutrophils [5]) was “slight decrease in activity”, the “superoxide anion production” value (neutrophils [2]) was “effectively promoted superoxide anion production” and the “degranulation activity of neutrophils” value (neutrophils [3]) was “effectively promoted the degranulation activity of neutrophils”. For the same compound, the EC50 (FPR1) was 2440 nM and the “increase in intracellular calcium ions through activation of FPR1 (in words)” value (FPR1) was “activated”.
In the case of `CSCC[C@@H](CC(=O)N[C@H](C(=O)N[C@H](CCSC)C(N)=O)C(C)C)NC(=O)C[C@H](Cc1ccc(O)cc1)NC(=O)C[C@H](CCCCN)NC(=O)[C@@H](N)Cc1c[nH]c2ccccc12` [WKβYβMβVm], the Half-Life [1, 6] is reported as > 24 h, the “calcium ion-increasing effect” value (neutrophils [4]) is reported as “highly induced” and the “superoxide anion production” value (neutrophils [2]) is reported as “did not induce superoxide anion production”. For the same compound, the “degranulation activity of neutrophils” value (neutrophils [3]) was “did not induce the degranulation activity of neutrophils”.
For `CSCC[C@H](NC(=O)CN(Cc1ccc(O)cc1)C(=O)[C@H](CCCCN)NC(=O)[C@@H](N)Cc1c[nH]c2ccccc12)C(=O)N[C@H](C(=O)N[C@H](CCSC)C(N)=O)C(C)C` [Y peptoid] (H-WK[Gly(N-4-hydroxybenzyl)]MV[dM]-NH2), the “Half-Life” value (FIG. 17) was 1.1 h, the “superoxide anion production” value (neutrophils [2]) was “effectively promote superoxide anion production” and the “degranulation activity of neutrophils” value (neutrophils [3]) was “promoted the degranulation activity of neutrophils to the extent similar to the WKYMVm peptide”.
For WKYMVm (W), the “Half-Life” value (【FIG 16】) was 2.6 h and the “Half-Life” value (FIG. 17) was 2.0 h.
In the case of WKYMβVm (βM), the “Half-Life” value (【FIG 16】) is reported as 2.4 h.
For WKYβMVm (βY), the “Half-Life” value (【FIG 16】) was 2.1 h.
With WKβYMVm (βK) the “Half-Life” value (【FIG 16】) was 4.9 h.
In the case of WKβYMβVm (βKβM), the “Half-Life” value (【FIG 16】) is reported as 8.7 h.
